Values of other authors as cited in US7122627B2, “Lactam inhibitors of Hepatitis C virus NS3 protease” (Bristol-Myers Squibb Company, priority 1999, dated 2006).
[ ]: non-standard residue; d: D form.

Legend:
[1] = target: HCV protease
[2] = system: Hepatitis C virus (HCV)

Substance: Ac-Asp-Glu-Dpa-Glu-Cha-Cys-OH
- Ki ([1]; reported in Biochemistry 37 (1998)): < 1000 nM

Substance: alpha interferon and ribavirin
- patients with sustained efficacy ([2]; combination therapy, Poynard et al. Lancet 1998): 40%

Substance: alpha interferon
- patients in whom treatment is effective ([2]; current treatment, monotherapy): 15-20%

Substance: Ac-D[dD]IVPC-OH
- effectiveness compared with all L isomer ([1]; Llinas-Brunet et al. Bioorg. Med. Chem. Lett. 8 1713-1718 (1998)): more effective than its all “L” isomer
